Measurements as given in PMC6225228, “Design, Synthesis and Evaluation of N-pyrazinylbenzamides as Potential Antimycobacterial Agents” (Molecules : A Journal of Synthetic Chemistry and Natural …, 2018).
Read-outs that look alike come from different tables or passages of the source.

Assays:
[1] = tested on: Candida albicans ATCC 44859; assay: Antifungal microdilution broth, CA; assay type: cell-based; conditions: Candida albicans, read-out: MIC CA
[2] = tested on: Lichtheimia corymbifera 272; assay: Antifungal microdilution broth, LC; assay type: cell-based; conditions: read-out: MIC LC
[3] = tested on: Enterococcus sp. J 14365/08; assay: Antibacterial microdilution broth, EF; assay type: cell-based; conditions: Enterococcus, read-out: MIC EF
Candida krusei E28 = assay: Antifungal microdilution broth, CK; assay type: cell-based; conditions: Pichia kudriavzevii, read-out: MIC CK
[4] = tested on: Staphylococcus epidermidis H 6966/08; assay: Antibacterial microdilution broth, SE; assay type: cell-based; conditions: Staphylococcus epidermidis, read-out: MIC SE
[5] = tested on: Escherichia coli CCM 4517; assay: Antibacterial microdilution broth, EC; assay type: cell-based; conditions: Escherichia coli, read-out: MIC EC
[6] = tested on: Aspergillus fumigatus 231; assay: Antifungal microdilution broth, AF; assay type: cell-based; conditions: read-out: MIC AF
[7] = tested on: Pseudomonas aeruginosa CCM 1961; assay: Antibacterial microdilution broth, PA; assay type: cell-based; conditions: Pseudomonas aeruginosa, read-out: MIC PA
[8] = tested on: M. kansasii CNCTC My 235/80 (ATCC 12478); assay: Antimycobacterial microdilution MABA, M. kansasii; assay type: cell-based, Mycobacterium kansasii; conditions: Mycobacterium kansasii, ATCC12478, pH 6.6, read-out: M. kans. ATCC 12478 MIC, Middlebrook 7H9 with OADC, pH 6.6, MABA
Candida tropicalis 156 = assay: Antifungal microdilution broth, CT; assay type: cell-based; conditions: read-out: MIC CT
Candida glabrata 20/I = assay: Antifungal microdilution broth, CG; assay type: cell-based; conditions: Nakaseomyces glabratus, 20/I, read-out: MIC CG
[9] = tested on: Staphylococcus aureus H 5996/08 methicillin resistant; assay: microbe, parasite or virus in culture; assay type: cell-based; conditions: Staphylococcus aureus, MRSA, read-out: MIC MRSA
[10] = tested on: Staphylococcus aureus CCM 4516/08; assay: Antibacterial microdilution broth, SA; assay type: cell-based; conditions: Staphylococcus aureus
Trichosporon asahii 1188 = assay: Antifungal microdilution broth, TA; assay type: cell-based; conditions: read-out: MIC TA
[11] = tested on: M. avium ssp. avium CNCTC My 80/72 (ATCC 15769); assay: Antimycobacterial microdilution MABA, M. avium; assay type: cell-based, Mycobacterium avium; conditions: Mycobacterium avium, ATCC15769, pH 6.6, read-out: M. avium ATCC 15769 MIC
[12] = tested on: Mycobacterium tuberculosis H37Rv CNCTC My 331/88 (ATCC 27294); assay: Antimycobacterial microdilution MABA, M. tuberculosis; assay type: cell-based; conditions: for Mtb H37Rv ATCC 27294 MIC: Middlebrook 7H9 with OADC growth supplement, pH = 6.6, MABA; for MIC: Mycobacterium tuberculosis, read-out: Mtb H37Rv ATCC 27294 MIC, Middlebrook 7H9 with OADC growth supplement, pH = 6.6, MABA
[13] = tested on: Trichophyton interdigitale 445; assay: Antifungal microdilution broth, TI; assay type: cell-based; conditions: read-out: MIC TI
[14] = tested on: Mycobacterium smegmatis CCM 4622 (ATCC 607); assay: Antimycobacterial microdilution, M. smegmatis; assay type: cell-based; conditions: Mycolicibacterium smegmatis, read-out: M. smeg. ATCC 607 MIC
[15] = Lichtheimia corymbifera, 272, 24 h
[16] = Lichtheimia corymbifera, 272, 48 h
[17] = Aspergillus fumigatus, 231, 24 h
[18] = Aspergillus fumigatus, 231, 48 h
[19] = CCM4516, 24 h, read-out: MIC SA, 24 h
[20] = CCM4516, 48 h, read-out: MIC SA, 48 h
[21] = Trichosporon asahii, 1188, 24 h
[22] = Trichosporon asahii, 1188, 48 h
[23] = Trichophyton interdigitale, 445, 72 h
[24] = Trichophyton interdigitale, 445, 120 h

SMILES	MIC ([1]; ATCC44859, 24 h) [µM]	MIC ([1]; ATCC44859, 48 h) [µM]	MIC [2, 15] [µM]	MIC [2, 16] [µM]	MIC ([3]; SP.J14365/08, 24 h) [µM]	MIC ([3]; SP.J14365/08, 48 h) [µM]	MIC (Candida krusei E28; E28, 24 h) [µM]	MIC (Candida krusei E28; E28, 48 h) [µM]	MIC ([4]; H6966/08, 24 h) [µM]	MIC ([4]; H6966/08, 48 h) [µM]	melting point [°C]	MIC ([5]; CCM4517, 24 h) [µM]	MIC ([5]; CCM4517, 48 h) [µM]	MIC [6, 17] [µM]	MIC [6, 18] [µM]	MIC ([7]; CCM1961, 72 h) [µM]	MIC ([7]; CCM1961, 120 h) [µM]	MIC [8] [µg/mL]	MIC (Candida tropicalis 156; Candida tropicalis, 156, 24 h) [µM]	MIC (Candida tropicalis 156; Candida tropicalis, 156, 48 h) [µM]	also measured
O=C(Nc1cnc(Cl)cn1)c1ccc(Br)cc1 [Compound 2m]	> 125	> 125	> 125	> 125	> 125	> 125	> 125	> 125	> 125	> 125	229.2 to 230.5	> 125	> 125	> 125	> 125	> 125	> 125	> 100	> 125	> 125	MIC (Candida glabrata 20/I; 24 h): > 125 µM; MIC (Candida glabrata 20/I; 48 h): > 125 µM; MIC ([9]; 24 h): > 125 µM; MIC ([9]; 48 h): > 125 µM; MIC [10, 19]: > 125 µM; MIC [10, 20]: > 125 µM; MIC (Trichosporon asahii 1188; [21]): > 125 µM; MIC (Trichosporon asahii 1188; [22]): > 125 µM; MIC [11]: > 100 µg/mL; Mtb H37Rv ATCC 27294 MIC [12]: >100 µg/mL; MIC [12]: > 100 µg/mL; MIC [13, 23]: > 125 µM; MIC [13, 24]: > 125 µM; MIC [14]: ≥ 500 µg/mL
COc1ccccc1C(=O)Nc1cncc(Cl)n1 [Compound 3e]	> 500	> 500	> 500	> 500	> 500	> 500	> 500	> 500	> 500	> 500	149.1 to 150.7	> 500	> 500	> 500	> 500	> 500	> 500	> 100	> 500	> 500	MIC (Candida glabrata 20/I; 24 h): > 500 µM; MIC (Candida glabrata 20/I; 48 h): > 500 µM; MIC ([9]; 24 h): > 500 µM; MIC ([9]; 48 h): > 500 µM; MIC [10, 19]: > 500 µM; MIC [10, 20]: > 500 µM; MIC (Trichosporon asahii 1188; [21]): > 500 µM; MIC (Trichosporon asahii 1188; [22]): > 500 µM; MIC [11]: > 100 µg/mL; Mtb H37Rv ATCC 27294 MIC [12]: >100 µg/mL; MIC [12]: > 100 µg/mL; MIC [13, 23]: > 500 µM; MIC [13, 24]: > 500 µM; MIC [14]: ≥ 500 µg/mL
O=C(Nc1cncc(Cl)n1)c1cccc(Cl)c1 [Compound 3k]	> 125	> 125	> 125	> 125	> 125	> 125	> 125	> 125	> 125	> 125	166 to 167.1	> 125	> 125	> 125	> 125	> 125	> 125	> 100	> 125	> 125	MIC (Candida glabrata 20/I; 24 h): > 125 µM; MIC (Candida glabrata 20/I; 48 h): > 125 µM; MIC ([9]; 24 h): > 125 µM; MIC ([9]; 48 h): > 125 µM; MIC [10, 19]: > 125 µM; MIC [10, 20]: > 125 µM; MIC (Trichosporon asahii 1188; [21]): > 125 µM; MIC (Trichosporon asahii 1188; [22]): > 125 µM; MIC [11]: > 100 µg/mL; Mtb H37Rv ATCC 27294 MIC [12]: >100 µg/mL; MIC [12]: > 100 µg/mL; MIC [13, 23]: > 125 µM; MIC [13, 24]: > 125 µM; MIC [14]: ≥ 500 µg/mL
